Earlier results in patent publication US20060063794A1, “Method of attenuating graft rejection” (Fujisawa Pharmaceutical Co., Ltd., priority 2004, published 2006).

What was measured:
[1] = MMF 2 g/day in addition to Tacrolimus and corticosteroid; cited from earlier work
rat cardiac allografts = conditions: rats, 20 mg/kg for ten days; cited from earlier work

Compound	AR rate [1] [%]	Prolongation of graft survival (rat cardiac allografts)
COc1c(C)c2c(c(O)c1C/C=C(\C)CCC(=O)OCCN1CCOCC1)C(=O)OC2 [MMF]	7.1	–
N#Cc1ccc(NC(=O)C(C#N)C(=O)C2CC2)cc1 (centres unmarked) [MNA 279, reference compound]	–	about two
